Experimental data published in US11154533B2, “Topical compositions and methods for treating inflammatory skin diseases” (Azora Therapeutics, Inc., priority 2019, dated 2021).

Columns and labels:
Assay in all cases: Pharmacodynamics in Th17-stimulated human skin on Franz cell, qPCR
Format in all cases: cell-based
Conditions in all cases: control added to receptor solution at 40 hours and 16 hours prior to Th17 stimulation
IL8 = system: IL8
Experimental: (§1) Example 5 describes results of a study on the pharmacodynamics of composition identified as formulation identification no. OO14. In this study, human skin placed on a static in vitro diffusion cell and a fixed amount of the formulation was applied to the skin. The formulation was applied to the skin at either 16 hours prior to or both 40 hours and 16 hours prior to Th17 stimulation. The receptor solution was replaced with the Th17 stimulation media was incubated for 24 hours prior to harvesting. […] As a control, 0.01% betamethasone (BMV) was added to the receptor solution at both 40 hours and 16 hours prior to Th17 stimulation.
(§2) Freshly excised human skin was dermatomed to 750 microns with the stratum corneum intact and placed on a static Franz cell employing ˜0.6 cm^2 of skin. 10 μL of a topical formulation OO14 containing 0.079% synthetic indirubin was applied to the skin at either 16 hours prior to stimulation or both 40 hours and 16 hours prior to Th17 stimulation. As a control, 0.01% betamethasone (BMV) was added to the receptor solution at both 40 hours and 16 hours prior to Th17 stimulation. The Th17 stimulation media contains a mixture of cytokines and antibodies shown to induce Th17 polarization and was made and added as described in the skin resident immune cell activation assay in Smith S. H. et al., PLoS ONE 11(2): e0147979. The skin was cultured for an additional 24 hours prior to harvesting for qPCR and staining for AhR activation.

S100A7 = system: S100A7
Experimental: as §1, §2

IL17-alpha = system: IL17-alpha
Experimental: as §1, §2

IL1-beta = system: IL1-beta
Experimental: as §1, §2

C[C@H]1C[C@H]2[C@@H]3CCC4=CC(=O)C=C[C@]4(C)[C@@]3(F)[C@@H](O)C[C@]2(C)[C@@]1(O)C(=O)CO [0.01% BMV, betamethasone]
% Inhibition Compared to Th17, IL8 (IL8): 14.01%
% Inhibition Compared to Th17, S100A7 (S100A7): N/I* (Not Inhibited compared to Th17)
% Inhibition Compared to Th17, IL17-alpha (IL17-alpha): 96.99%
% Inhibition Compared to Th17, IL1-beta (IL1-beta): 58.66%
